Assay results reported in paper PMC8288134, “Synthesis, potential antitumor activity, cell cycle analysis, and multitarget mechanisms of novel hydrazones incorporating a 4-methylsulfonylbenzene scaffold: a molecular docking study” (Journal of Enzyme Inhibition and Medicinal Chemistry, 2021).

Tests used:
MDA-MB-468 = assay: NCI antitumor screen (SRB); assay type: cell-based; conditions: Homo sapiens, one dose 10 µM, read-out: Growth inhibition percentage (GI%)
A498 = assay: NCI antitumor screen (SRB); assay type: cell-based; conditions: Homo sapiens, one dose 10 µM, read-out: Growth inhibition percentage (GI%)
SK-OV-3 = assay: NCI antitumor screen (SRB); assay type: cell-based; conditions: Homo sapiens, one dose 10 µM, read-out: Growth inhibition percentage (GI%)
HCT-15 = assay: NCI antitumor screen (SRB); assay type: cell-based; conditions: Homo sapiens, one dose 10 µM, read-out: Growth inhibition percentage (GI%)
HCC-2998 = assay: NCI antitumor screen (SRB); assay type: cell-based; conditions: Homo sapiens, one dose 10 µM, read-out: Growth inhibition percentage (GI%)
TK-10 = assay: NCI antitumor screen (SRB); assay type: cell-based; conditions: Homo sapiens, one dose 10 µM, read-out: Growth inhibition percentage (GI%)
[1] = tested on: full panel of 59 cancer cell lines; assay: NCI antitumor screen, full panel; conditions: one dose 10 µM, mean over cell lines
SF-268 = assay: NCI antitumor screen (SRB); assay type: cell-based; conditions: Homo sapiens, one dose 10 µM, read-out: Growth inhibition percentage (GI%)
IGROV1 = assay: NCI antitumor screen (SRB); assay type: cell-based; conditions: Homo sapiens, IGROV-1, one dose 10 µM, read-out: Growth inhibition percentage (GI%)
[2] = tested on: ovarian cancer tumour cell lines; assay: NCI antitumor screen, subpanel; assay type: cell-based; conditions: 10 µM
UO-31 = assay: NCI antitumor screen (SRB); assay type: cell-based, human; conditions: Homo sapiens, UO-31, UO-31; one dose 10 µM; read-out: Growth inhibition percentage (GI%)
MDA-MB-435 = assay: NCI antitumor screen (SRB); assay type: cell-based; conditions: Homo sapiens, one dose 10 µM, read-out: Growth inhibition percentage (GI%)
MDA-MB-231/ATCC = assay: NCI antitumor screen (SRB); assay type: cell-based; conditions: Homo sapiens, one dose 10 µM, read-out: Growth inhibition percentage (GI%)
HT29 = assay: NCI antitumor screen (SRB); assay type: cell-based; conditions: Homo sapiens, HT-29, one dose 10 µM, read-out: Growth inhibition percentage (GI%)
SNB-75 = assay: NCI antitumor screen (SRB); assay type: cell-based; conditions: Homo sapiens, one dose 10 µM, read-out: Growth inhibition percentage (GI%)
HL-60(TB) = assay: cells; assay type: cell-based, human; conditions: Homo sapiens, HL-60, HL-60(TB); one dose 10 µM; read-out: Growth inhibition percentage (GI%)
OVCAR-4 = assay: NCI antitumor screen (SRB); assay type: cell-based; conditions: Homo sapiens, one dose 10 µM, read-out: Growth inhibition percentage (GI%)
SK-MEL-28 = assay: NCI antitumor screen (SRB); assay type: cell-based, human; conditions: Homo sapiens, SK-MEL-28, SK-MEL-28; one dose 10 µM; read-out: Growth inhibition percentage (GI%)
LOX IMVI = assay: NCI antitumor screen (SRB); assay type: cell-based; conditions: Homo sapiens, one dose 10 µM, read-out: Growth inhibition percentage (GI%)
SR = assay: NCI antitumor screen (SRB); assay type: cell-based; conditions: Homo sapiens, one dose 10 µM, read-out: Growth inhibition percentage (GI%)
OVCAR-5 = assay: NCI antitumor screen (SRB); assay type: cell-based; conditions: Homo sapiens, one dose 10 µM, read-out: Growth inhibition percentage (GI%)
RXF 393 = assay: NCI antitumor screen (SRB); assay type: cell-based; conditions: Homo sapiens, one dose 10 µM, read-out: Growth inhibition percentage (GI%)
HS 578 T = assay: NCI antitumor screen (SRB); assay type: cell-based; conditions: Homo sapiens, one dose 10 µM, read-out: Growth inhibition percentage (GI%)
NCI/ADR-RES = assay: NCI antitumor screen (SRB); assay type: cell-based; conditions: Homo sapiens, one dose 10 µM, read-out: Growth inhibition percentage (GI%)
MALME-3M = assay: NCI antitumor screen (SRB); assay type: cell-based; conditions: Homo sapiens, one dose 10 µM, read-out: Growth inhibition percentage (GI%)
CCRF-CEM = assay: NCI antitumor screen (SRB); assay type: cell-based; conditions: Homo sapiens, one dose 10 µM, read-out: Growth inhibition percentage (GI%)
T-47D = assay: NCI antitumor screen (SRB); assay type: cell-based; conditions: Homo sapiens, T47D, one dose 10 µM, read-out: Growth inhibition percentage (GI%)
SNB-19 = assay: NCI antitumor screen (SRB); assay type: cell-based; conditions: Homo sapiens, one dose 10 µM, read-out: Growth inhibition percentage (GI%)
NCI-H23 = assay: NCI antitumor screen (SRB); assay type: cell-based; conditions: Homo sapiens, one dose 10 µM, read-out: Growth inhibition percentage (GI%)
SW-620 = assay: NCI antitumor screen (SRB); assay type: cell-based; conditions: Homo sapiens, one dose 10 µM, read-out: Growth inhibition percentage (GI%)
NCI-H226 = assay: NCI antitumor screen (SRB); assay type: cell-based; conditions: Homo sapiens, one dose 10 µM, read-out: Growth inhibition percentage (GI%)
MOLT-4 = assay: NCI antitumor screen (SRB); assay type: cell-based; conditions: Homo sapiens, one dose 10 µM, read-out: Growth inhibition percentage (GI%)
786-0 = assay: NCI antitumor screen (SRB); assay type: cell-based; conditions: Homo sapiens, one dose 10 µM, read-out: Growth inhibition percentage (GI%)
PRMI-8226 = assay: NCI antitumor screen (SRB); assay type: cell-based; conditions: Homo sapiens, one dose 10 µM, read-out: Growth inhibition percentage (GI%)
OVCAR-8 = assay: NCI antitumor screen (SRB); assay type: cell-based; conditions: Homo sapiens, one dose 10 µM, read-out: Growth inhibition percentage (GI%)
SF-295 = assay: NCI antitumor screen (SRB); assay type: cell-based; conditions: Homo sapiens, one dose 10 µM, read-out: Growth inhibition percentage (GI%)
OVCAR-3 = assay: NCI antitumor screen (SRB); assay type: cell-based; conditions: Homo sapiens, one dose 10 µM, read-out: Growth inhibition percentage (GI%)
EKVX = assay: NCI antitumor screen (SRB); assay type: cell-based; conditions: Homo sapiens, one dose 10 µM, read-out: Growth inhibition percentage (GI%)
NCI-H460 = assay: NCI antitumor screen (SRB); assay type: cell-based; conditions: Homo sapiens, one dose 10 µM, read-out: Growth inhibition percentage (GI%)
M14 = assay: NCI antitumor screen (SRB); assay type: cell-based; conditions: Homo sapiens, one dose 10 µM, read-out: Growth inhibition percentage (GI%)
ACHN = assay: NCI antitumor screen (SRB); assay type: cell-based; conditions: Homo sapiens, one dose 10 µM, read-out: Growth inhibition percentage (GI%)
U251 = assay: NCI antitumor screen (SRB); assay type: cell-based; conditions: Homo sapiens, U-251, one dose 10 µM, read-out: Growth inhibition percentage (GI%)
DU-145 = assay: NCI antitumor screen (SRB); assay type: cell-based; conditions: Homo sapiens, one dose 10 µM, read-out: Growth inhibition percentage (GI%)
BT-549 = assay: NCI antitumor screen (SRB); assay type: cell-based; conditions: Homo sapiens, one dose 10 µM, read-out: Growth inhibition percentage (GI%)
UACC-257 = assay: NCI antitumor screen (SRB); assay type: cell-based, human; conditions: Homo sapiens, UACC-257, UACC-257; one dose 10 µM; read-out: Growth inhibition percentage (GI%)
PC-3 = assay: NCI antitumor screen (SRB); assay type: cell-based; conditions: Homo sapiens, one dose 10 µM, read-out: Growth inhibition percentage (GI%)
CAKI-1 = assay: NCI antitumor screen (SRB); assay type: cell-based; conditions: Homo sapiens, one dose 10 µM, read-out: Growth inhibition percentage (GI%)
SF-539 = assay: NCI antitumor screen (SRB); assay type: cell-based; conditions: Homo sapiens, one dose 10 µM, read-out: Growth inhibition percentage (GI%)
KM12 = assay: NCI antitumor screen (SRB); assay type: cell-based; conditions: Homo sapiens, one dose 10 µM, read-out: Growth inhibition percentage (GI%)
UACC-62 = assay: NCI antitumor screen (SRB); assay type: cell-based; conditions: Homo sapiens, one dose 10 µM, read-out: Growth inhibition percentage (GI%)
COLO 205 = assay: NCI antitumor screen (SRB); assay type: cell-based; conditions: Homo sapiens, one dose 10 µM, read-out: Growth inhibition percentage (GI%)
HCT-116 = assay: NCI antitumor screen (SRB); assay type: cell-based; conditions: Homo sapiens, read-out: Growth inhibition percentage (GI%)
SN12C = assay: NCI antitumor screen (SRB); assay type: cell-based; conditions: Homo sapiens, one dose 10 µM, read-out: Growth inhibition percentage (GI%)
A549/ATCC = assay: NCI antitumor screen (SRB); assay type: cell-based; conditions: Homo sapiens, one dose 10 µM, read-out: Growth inhibition percentage (GI%)
MCF7 = assay: NCI antitumor screen (SRB); assay type: cell-based; conditions: Homo sapiens, one dose 10 µM, read-out: Growth inhibition percentage (GI%)

Cc1ccc(NC(=O)c2ccc(CN3CCN(C)CC3)cc2)cc1Nc1nccc(-c2cccnc2)n1 [Imatinib, imatinib, reference compound]
inhibition at 10 µM (MDA-MB-468): 29.1%
inhibition at 10 µM (A498): 13.7%
inhibition at 10 µM (SK-OV-3): < 10%
inhibition at 10 µM (HCT-15): 11.5%
inhibition at 10 µM (HCC-2998): < 10%
inhibition at 10 µM (TK-10): < 10%
percentage mean growth (MG) [1]: 92.62%
inhibition at 10 µM (SF-268): < 10%
inhibition at 10 µM (IGROV1): < 10%
GI (range over subpanel cell lines) [2]: < 10.0%
inhibition at 10 µM (UO-31): < 10%
inhibition at 10 µM (MDA-MB-435): < 10%
inhibition at 10 µM (MDA-MB-231/ATCC): 11.2%
inhibition at 10 µM (HT29): 47.1%
inhibition at 10 µM (SNB-75): < 10%
inhibition at 10 µM (HL-60(TB)): < 10%
inhibition at 10 µM (OVCAR-4): < 10%
inhibition at 10 µM (SK-MEL-28): < 10%
inhibition at 10 µM (LOX IMVI): 11.6%
inhibition at 10 µM (SR): 14.6%
inhibition at 10 µM (OVCAR-5): < 10%
inhibition at 10 µM (RXF 393): < 10%
inhibition at 10 µM (HS 578 T): < 10%
inhibition at 10 µM (NCI/ADR-RES): < 10%
inhibition at 10 µM (MALME-3M): < 10%
inhibition at 10 µM (CCRF-CEM): < 10%
inhibition at 10 µM (T-47D): 18.6%
inhibition at 10 µM (SNB-19): < 10%
inhibition at 10 µM (NCI-H23): 17.1%
inhibition at 10 µM (SW-620): < 10%
inhibition at 10 µM (NCI-H226): 10.6%
inhibition at 10 µM (MOLT-4): 18%
inhibition at 10 µM (786-0): < 10%
inhibition at 10 µM (PRMI-8226): 12.6%
inhibition at 10 µM (OVCAR-8): < 10%
inhibition at 10 µM (SF-295): 15.1%
inhibition at 10 µM (OVCAR-3): < 10%
inhibition at 10 µM (EKVX): 15.7%
inhibition at 10 µM (NCI-H460): < 10%
inhibition at 10 µM (M14): < 10%
inhibition at 10 µM (ACHN): < 10%
inhibition at 10 µM (U251): 10.6%
inhibition at 10 µM (DU-145): 14.4%
inhibition at 10 µM (BT-549): < 10%
inhibition at 10 µM (UACC-257): < 10%
inhibition at 10 µM (PC-3): 10.6%
inhibition at 10 µM (CAKI-1): < 10%
inhibition at 10 µM (SF-539): 24.5%
inhibition at 10 µM (KM12): < 10%
inhibition at 10 µM (UACC-62): < 10%
inhibition at 10 µM (COLO 205): < 10%
inhibition at 10 µM (HCT-116): 18.6%
inhibition at 10 µM (SN12C): < 10%
inhibition at 10 µM (A549/ATCC): < 10%
inhibition at 10 µM (MCF7): < 10%
